Data as given in US20100227859A1, “TRICYCLIC COMPOUNDS AS MATRIX METALLOPROTEINASE INHIBITORS” (priority 2007, published 2010).

molecular target: purified human MMP-12 enzyme (Homo sapiens, UniProt P39900); experiment: MMP-12 FRET assay; format: biochemical; settings: substrate 20 μM, room temperature
Procedure, shortened: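 Initial fluorescence rate (325/395 nm) of cleavage of MCA-Pro-Leu-Gly-Leu-Dpa(DNP)-Ala-Arg, 20 μM final, was followed for 30 min at room temperature after a 30 min enzyme–compound preincubation. Buffer: 50 mM HEPES pH 7.4, 100 mM NaCl, 5 mM CaCl2, 0.005% Brij-35, with 10% final DMSO. IC50 came from a Hill-type fit of rate versus inhibitor concentration.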

Chain of purified human MMP-12 enzyme (P39900 106-470): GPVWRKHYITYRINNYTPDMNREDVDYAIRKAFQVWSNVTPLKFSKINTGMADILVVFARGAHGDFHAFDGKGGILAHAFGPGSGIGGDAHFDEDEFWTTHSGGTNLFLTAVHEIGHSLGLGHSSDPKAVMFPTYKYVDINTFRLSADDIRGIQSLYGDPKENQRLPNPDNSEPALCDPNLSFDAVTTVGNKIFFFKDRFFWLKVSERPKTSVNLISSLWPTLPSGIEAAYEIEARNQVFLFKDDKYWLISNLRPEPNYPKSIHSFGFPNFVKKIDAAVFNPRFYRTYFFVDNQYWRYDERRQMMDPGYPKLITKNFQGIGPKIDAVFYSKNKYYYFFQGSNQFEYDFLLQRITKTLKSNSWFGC

| SMILES | IC50 |
| --- | --- |
| CC(C)[C@H](NS(=O)(=O)c1ccc2c(c1)oc1ccc(-c3ccc(-c4ccc(Cl)nc4)nc3)cc12)C(=O)O [Compound 59, (S)-2-(8-(6′-chloro-2,3′-bipyridin-5-yl)dibenzo[b,d]furan-3-sulfonamido)-3-methylbutanoic acid] | < 1.5 nM |
| CC(C)Cn1cc(-c2ccc3oc4cc(S(=O)(=O)N[C@H](C(=O)O)C(C)C)ccc4c3c2)cn1 [Compound 159, (S)-2-(8-(1-isobutyl-1H-pyrazol-4-yl)dibenzo[b,d]furan-3-sulfonamido)-3-methylbutanoic acid] | 6.2 nM |
| CCC(C)Cn1cc(-c2ccc3c(c2)oc2ccc(S(=O)(=O)N[C@@H](C(=O)O)C(C)C)cc23)cn1 (stereo partly drawn) [Compound 170, (2R)-3-methyl-2-(7-(1-(2-methylbutyl)-1H-pyrazol-4-yl)dibenzo[b,d]furan-2-sulfonamido)butanoic acid] | 5.2 nM |
| CONC(=N)c1ccc2oc3cc(S(=O)(=O)N[C@H](C(=O)O)C(C)C)ccc3c2c1 [Compound 108, (S)-2-(8-(N-methoxycarbamimidoyl)dibenzo[b,d]furan-3-sulfonamido)-3-methylbutanoic acid] | 2 nM |
| COC(=O)C#Cc1ccc2oc3cc(S(=O)(=O)N[C@H](C(=O)O)C(C)C)ccc3c2c1 [Compound 6, (S)-2-(8-(3-methoxy-3-oxoprop-1-ynyl)dibenzo[b,d]furan-3-sulfonamido)-3-methylbutanoic acid] | 30.4 nM |
| CC(C)[C@H](NS(=O)(=O)c1ccc2c(c1)oc1cc(-c3nc4ccccc4o3)ccc12)C(=O)O [Compound 227, (S)-2-(7-(benzo[d]oxazol-2-yl)dibenzo[b,d]furan-3-sulfonamido)-3-methylbutanoic acid] | 6.1 nM |
| CC(C)[C@H](NS(=O)(=O)c1ccc2c(c1)oc1ccc(-c3nc(-c4ccc(F)cc4)cs3)cc12)C(=O)O [Compound 284, (S)-2-(8-(4-(4-fluorophenyl)thiazol-2-yl)dibenzo[b,d]furan-3-sulfonamido)-3-methylbutanoic acid] | 18 nM |
| CC(C)[C@H](NS(=O)(=O)c1ccc2c(c1)oc1ccc(-c3oc(Cl)cc3Cl)cc12)C(=O)O [Compound 134, (S)-2-(8-(3,5-dichlorofuran-2-yl)dibenzo[b,d]furan-3-sulfonamido)-3-methylbutanoic acid] | 2.5 nM |
| CC(C)[C@H](NS(=O)(=O)c1ccc2c(c1)oc1ccc(-c3ccc(C(=O)O)s3)cc12)C(=O)O [Compound 112, (S)-5-(7-(N-(1-carboxy-2-methylpropyl)sulfamoyl)dibenzo[b,d]furan-2-yl)thiophene-2-carboxylic acid] | 52 nM |
| CC(C)(C)c1nc(-c2ccc3oc4cc(S(=O)(=O)N[C@H](Cc5c[nH]c6ccccc56)C(=O)O)ccc4c3c2)no1 [Compound 256, (R)-2-(8-(5-tert-butyl-1,2,4-oxadiazol-3-yl)dibenzo[b,d]furan-3-sulfonamido)-3-(1H-indol-3-yl)propanoic acid] | 129 nM |
| CCN=C(NCC)c1ccc2oc3cc(S(=O)(=O)N[C@H](C(=O)O)C(C)C)ccc3c2c1 [Compound 109, (S)-2-(8-(N,N′-diethylcarbamimidoyl)dibenzo[b,d]furan-3-sulfonamido)-3-methylbutanoic acid] | 640 nM |
| CC(C)[C@H](NS(=O)(=O)c1ccc2c(c1)oc1ccc(-c3noc(-c4cccs4)n3)cc12)C(=O)O [Compound 264, (S)-3-methyl-2-(8-(5-(thiophen-2-yl)-1,2,4-oxadiazol-3-yl)dibenzo[b,d]furan-3-sulfonamido)butanoic acid] | < 1.5 nM |
| CC(C)[C@H](NS(=O)(=O)c1ccc2c(c1)oc1ccc(C(=N)NO)cc12)C(=O)O [Compound 82, (S)-2-(8-(N-hydroxycarbamimidoyl)dibenzo[b,d]furan-3-sulfonamido)-3-methylbutanoic acid] | 1.8 nM |
| Cc1nc(C)c(-c2ccc3c(c2)oc2ccc(S(=O)(=O)N[C@@H](C(=O)O)C(C)C)cc23)s1 [Compound 169, (R)-2-(7-(2,4-dimethylthiazol-5-yl)dibenzo[b,d]furan-2-sulfonamido)-3-methylbutanoic acid] | 11 nM |
| COc1ccc(-c2ccc3sc4cc(S(=O)(=O)N[C@H](C(=O)O)C(C)C)ccc4c3c2)cn1 [Compound 55, (S)-2-(8-(6-methoxypyridin-3-yl)dibenzo[b,d]thiophene-3-sulfonamido)-3-methylbutanoic acid] | 65 nM |
| CCc1sc(-c2ccc3c(c2)oc2cc(S(=O)(=O)N[C@H](C(=O)O)C(C)C)ccc23)cc1Br [Compound 165, (S)-2-(7-(4-bromo-5-ethylthiophen-2-yl)dibenzo[b,d]furan-3-sulfonamido)-3-methylbutanoic acid] | 1.5 nM |
| CC(C)[C@H](NS(=O)(=O)c1ccc2c(c1)sc1cc(-c3ccoc3)ccc12)C(=O)O [Compound 60, (S)-2-(7-(furan-3-yl)dibenzo[b,d]thiophene-3-sulfonamido)-3-methylbutanoic acid] | < 1.5 nM |
| CC(C)[C@@H](NS(=O)(=O)c1ccc2oc3cc(-c4nc(C(F)(F)F)c(Cl)s4)ccc3c2c1)C(=O)O [Compound 295, (R)-2-(7-(5-chloro-4-(trifluoromethyl)thiazol-2-yl)dibenzo[b,d]furan-2-sulfonamido)-3-methylbutanoic acid] | 15 nM |
| CC(C)[C@H](NS(=O)(=O)c1ccc2c(c1)sc1ccc(-c3ccc(-c4ccc(-c5ccc(Cl)nc5)nc4)nc3)cc12)C(=O)O [Compound 54, (S)-2-[8-(6″-Chloro-[2,3′;6′,3″]terpyridin-5-yl)-dibenzothiophene-3-sulfonylamino]-3-methyl-butanoic acid] | 483 nM |
| CC(C)[C@@H](NS(=O)(=O)c1ccc2oc3cc(-c4noc(C(F)(F)F)n4)ccc3c2c1)C(=O)O [Compound 141, (R)-3-methyl-2-(7-(5-(trifluoromethyl)-1,2,4-oxadiazol-3-yl)dibenzo[b,d]furan-2-sulfonamido)butanoic acid] | 14 nM |

The remaining lines, values ahead:

| IC50 | SMILES |
| --- | --- |
| < 1.5 nM | Cc1nc(C)c(-c2ccc3oc4cc(S(=O)(=O)N[C@H](C(=O)O)C(C)C)ccc4c3c2)s1 [Compound 201, (S)-2-(8-(2,4-dimethylthiazol-5-yl)dibenzo[b,d]furan-3-sulfonamido)-3-methylbutanoic acid] |
| 5.4 nM | CC(C)[C@H](NS(=O)(=O)c1ccc2c(c1)oc1ccc(-c3noc(CC(C)(C)C)n3)cc12)C(=O)O [Compound 261, (S)-3-methyl-2-(8-(5-neopentyl-1,2,4-oxadiazol-3-yl)dibenzo[b,d]furan-3-sulfonamido)butanoic acid] |
| 220 nM | CC(C)[C@@H](NS(=O)(=O)c1ccc2sc3cc(-c4nccs4)ccc3c2c1)C(=O)O [Compound 285, (R)-3-methyl-2-(7-(thiazol-2-yl)dibenzo[b,d]thiophene-2-sulfonamido)butanoic acid] |
| 10.7 nM | Cc1noc(C)c1-c1ccc2oc3cc(S(=O)(=O)N[C@H](C(=O)O)C(C)C)ccc3c2c1 [Compound 9, (S)-2-(8-(3,5-dimethylisoxazol-4-yl)dibenzo[b,d]furan-3-sulfonamido)-3-methylbutanoic acid] |
| < 1.5 nM | CC(C)[C@H](NS(=O)(=O)c1ccc2c(c1)oc1cc(-c3ccoc3)ccc12)C(=O)O [Compound 79, (S)-2-(7-(furan-3-yl)dibenzo[b,d]furan-3-sulfonamido)-3-methylbutanoic acid] |
| 1.7 nM | Cc1nnc(-c2ccc3oc4cc(S(=O)(=O)N[C@H](C(=O)O)C(C)C)ccc4c3c2)s1 [Compound 146, (S)-3-methyl-2-(8-(5-methyl-1,3,4-thiadiazol-2-yl)dibenzo[b,d]furan-3-sulfonamido)butanoic acid] |
| 34 nM | CC(C)[C@H](NS(=O)(=O)c1ccc2oc3cc(-c4noc(C(C)(C)C)n4)ccc3c2c1)C(=O)O [Compound 276, (S)-2-(7-(5-tert-butyl-1,2,4-oxadiazol-3-yl)dibenzo[b,d]furan-2-sulfonamido)-3-methylbutanoic acid] |
| 5.1 nM | CC(C)[C@@H](NS(=O)(=O)c1ccc2oc3cc(-c4ccc(Cl)nc4)ccc3c2c1)C(=O)O [Compound 101, (R)-2-(7-(6-chloropyridin-3-yl)dibenzo[b,d]furan-2-sulfonamido)-3-methylbutanoic acid] |
| < 1.5 nM | CC(C)[C@H](NS(=O)(=O)c1ccc2c(c1)oc1ccc(-c3nc(C(F)(F)F)cs3)cc12)C(=O)O [Compound 126, (S)-3-methyl-2-(8-(4-(trifluoromethyl)thiazol-2-yl)dibenzo[b,d]furan-3-sulfonamido)butanoic acid] |
| 15 nM | CCC(C)Cn1cc(-c2ccc3oc4cc(S(=O)(=O)N[C@H](C(=O)O)C(C)C)ccc4c3c2)cn1 (stereo partly drawn) [Compound 157, (2S)-3-methyl-2-(8-(1-(2-methylbutyl)-1H-pyrazol-4-yl)dibenzo[b,d]furan-3-sulfonamido)butanoic acid] |
| < 1.5 nM | CC(C)[C@H](NS(=O)(=O)c1ccc2c(c1)oc1ccc(-c3ccc4ncccc4c3)cc12)C(=O)O [Compound 14, (S)-3-methyl-2-(8-(quinolin-6-yl)dibenzo[b,d]furan-3-sulfonamido)butanoic acid] |
| 38 nM | CC(C)[C@H](NS(=O)(=O)c1ccc2c(c1)sc1ccc(-c3ccsc3)cc12)C(=O)O [Compound 26, (S)-3-methyl-2-(8-(thiophen-3-yl)dibenzo[b,d]thiophene-3-sulfonamido)butanoic acid] |
| 61 nM | CC(C)C[C@H](NS(=O)(=O)c1ccc2oc3cc(-c4noc(C(C)(C)C)n4)ccc3c2c1)C(=O)O [Compound 279, (S)-2-(7-(5-tert-butyl-1,2,4-oxadiazol-3-yl)dibenzo[b,d]furan-2-sulfonamido)-4-methylpentanoic acid] |
| < 1.5 nM | CC(C)[C@H](NS(=O)(=O)c1ccc2c(c1)oc1cc(-c3ccc(Cl)s3)ccc12)C(=O)O [Compound 84, (S)-2-(7-(5-chlorothiophen-2-yl)dibenzo[b,d]furan-3-sulfonamido)-3-methylbutanoic acid] |
